Test results as given in article PMC6394990, “Detailed characterization of the solution kinetics and thermodynamics of biotin, biocytin and HABA binding to avidin and streptavidin” (PLoS ONE, 2019).
Several values for one entry are separate records, joined by “and”; a condition that tells them apart may be missing. Identical values can stand only once. Like-named read-outs stand apart in the source and are kept apart here.

Target: T1, streptavidin (SAV) (Streptomyces avidinii, UniProt P22629)
T1 construct: purchased Sigma Aldrich (St. Louis, MO)
T1 sequence (P22629 25-183): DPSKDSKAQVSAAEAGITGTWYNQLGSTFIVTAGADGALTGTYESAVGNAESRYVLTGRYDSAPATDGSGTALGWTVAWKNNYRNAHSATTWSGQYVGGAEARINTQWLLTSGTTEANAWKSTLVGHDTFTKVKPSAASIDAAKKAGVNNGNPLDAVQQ
Experiment: Stopped-flow association kinetics of dye-labeled biotin probes binding to streptavidin (F(t), rF(t); Arrhenius plots/global fitting)
Set-up: kcal/mol (from Arrhenius slope) / Eon for BFl: unit not given here
Conditions: for ΔG^ǂ / ΔS^ǂ: forward; for kcal/mol (from Arrhenius slope) / slope (Arrhenius linear fit): ph8; for halftime of association, F¯(t) / half-time of association, rF¯(t): probe 20 nM
Procedure: These reactions were carried out in a buffered solution of 10 mM Tris-HCl, 100 mM KCl, 2.5 mM MgCl2 and 1 mM CaCl2 at pH 8 and only AV-BcO reactions included pH 9 and 10. […] The deglycosylation of AV (for comparative association reactions) was carried out using the provided standard protocol with endoglycosidase H [47], both with and without incubation of a denaturant solution (2% SDS and 1M 2-mercaptoethanol).
The reactions were collected with the SF instrument, described previously. […] The AC(t) and DC(t) data were baseline corrected before obtaining the signal ratio (Eq 4) as a function of time (ρt).
The constant AGain is the instrumental amplitude gain and was evaluated by solving ρ(t) using the known steady state anisotropy (rss) of the complexes which is equivalent to the r(t) at t = ∞; and H, obtained from the equivalent grating factor (G) for the filters and photo multiplier tubes in the SF. For the probes used in here G was 0.82 and H = (1-G)/(1+G) = 0.099. Knowing Again and H, the AC(t) and DC(t) signals can be solved for r(t) and F(t) (Eqs 4 and 5) and the normalized fluorescence, F¯(t) , and corrected fluorescence anisotropy, rF¯(t), were obtained when F¯(0) and rF¯(0) were scaled to 1 at t = 0.
The F¯(t) (Eq 6) is equivalent to (I||) + 2 (I⊥) and proportional to quantum yield (QYi), molar absorptivity (εi) and to the formation or disappearance of the emitting species Xi(t); and rF¯(t) including the steady state anisotropies (rss) of each fluorescent species (Eq 7).
The possible reaction models were discriminated by the squared residuals of the observed and calculated association traces of both fluorescence and anisotropy fluorescence signals, F¯(t) and rF¯(t) , respectively.

[1] = SAV, average over the dye-labeled B7 probes, used for SAV-B7
[2] = SAV, average over the dye-labeled B7 probes, used for SAV-B7, listed as B
[3] = SAV, 10 (283.15 K), k (full value)
[4] = SAV, 15 (288.15 K), k (full value)
[5] = SAV, 25 (298.15 K), k (full value)
[6] = pH 8, SAV, pH 8, 10°C, read-out: kon
[7] = pH 8, SAV, pH 8, 15°C, read-out: kon
[8] = pH 8, SAV, pH 8, 20°C, read-out: kon
[9] = pH 8, SAV, pH 8, 25°C, read-out: kon

In the case of `O=C(O)CCCC[C@@H]1SC[C@@H]2NC(=O)N[C@@H]21` [B7, d-biotin], the “Eaon + (-∆H°)” value (SAV-B) is reported as 30.9 ± 2.5 kcal/mol, the “∆G°ǂ + (-∆G°)” value (SAV-B) is reported as 22.2 ± 1.0 kcal/mol and the “∆S°ǂ + (-∆S°)” value (SAV-B) is reported as 27.7 ± 2.0 cal/mol°K. The “ΔE = Ea^Forward-Ea^Backward” value (SAV-B7, column 3 minus 4) was -23.4 ± 4.0 kcal/mol, the “ΔG° ^ǂ, Forward -ΔG° ^ǂ, Backward” value (SAV-B7, column 3 minus 4) was -19.6 ± 2.5 kcal/mol and the “ΔS° ^ǂ, Forward -ΔS° ^ǂ, Backward” value (SAV-B7, column 3 minus 4) was -18.1 ± 4.5 cal/mol°K. The “fold slower than 10^9 M^-1s^-1 (diffusion limited)” value (SAV, 25°C) was 13-400 X, the “ΔG^ǂ, Forward” value [1] was 4.0 ± 0.6 kcal/mol and 4.0 kcal/mol and the “ΔS^ǂ, Forward” value [1] was 6.7 ± 1.6 cal/°K·mol and 6.7 cal/°K·mol. The “Ea^Forward” value [2] was 6.0 ± 1.0 kcal/mol and the “ΔS^ǂ, Forward” value [2] was 6.7 ± 2.0 cal/°K·mol.

With `O=C(CCCC[C@@H]1SC[C@@H]2NC(=O)N[C@@H]21)NCCNC(=O)c1ccc(-c2c3ccc(=O)cc-3oc3cc(O)ccc23)c(C(=O)O)c1` [BFl, Biotin-4-fluorescein] the “kon binding to SAV, fold faster than binding to AV” value (25°C) was 4 X, the “Eon for BFl” value (Enthalpy block, SAV) was 6.0 and the “kon by corrected fluorescence anisotropy rF(t)” value (SAV-BFl, 10 °C, 200 nM) was 37.5 ± 1.2 µM⁻¹ s⁻¹. For the same compound, the kon (SAV-BFl, 10 °C, 200 nM, read-out: kon by corrected fluorescence anisotropy rF(t)) was 3.75e+07 M⁻¹ s⁻¹, the kon (SAV-BFl, 10 °C, 200 nM, read-out: kon by fluorescence change F(t)) was 3.73e+07 M⁻¹ s⁻¹ and the kon (SAV-BFl, 10 °C, read-out: kon, Average) was 3.74e+07 M⁻¹ s⁻¹. For the same compound, the “kon by corrected fluorescence anisotropy rF(t)” value (SAV-BFl, 15 °C, 200 nM) was 45.0 ± 1.0 µM⁻¹ s⁻¹, the kon (SAV-BFl, 15 °C, 200 nM, read-out: kon by corrected fluorescence anisotropy rF(t)) was 4.5e+07 M⁻¹ s⁻¹ and the kon (SAV-BFl, 15 °C, 200 nM, read-out: kon by fluorescence change F(t)) was 4.48e+07 M⁻¹ s⁻¹. The “kon by corrected fluorescence anisotropy rF(t)” value (SAV-BFl, 15 °C, 400 nM) was 45.0 ± 1.7 µM⁻¹ s⁻¹, the kon (SAV-BFl, 15 °C, 400 nM, read-out: kon by corrected fluorescence anisotropy rF(t)) was 4.5e+07 M⁻¹ s⁻¹ and the kon (SAV-BFl, 15 °C, 400 nM, read-out: kon by fluorescence change F(t)) was 4.59e+07 M⁻¹ s⁻¹. The “kon by corrected fluorescence anisotropy rF(t)” value (SAV-BFl, 15 °C, 800 nM) was 43.8 ± 1.9 µM⁻¹ s⁻¹, the kon (SAV-BFl, 15 °C, 800 nM, read-out: kon by corrected fluorescence anisotropy rF(t)) was 4.38e+07 M⁻¹ s⁻¹ and the kon (SAV-BFl, 15 °C, 800 nM, read-out: kon by fluorescence change F(t)) was 4.2e+07 M⁻¹ s⁻¹. The kon (SAV-BFl, 15 °C, read-out: kon, Average) was 4.44e+07 M⁻¹ s⁻¹, the “kon by corrected fluorescence anisotropy rF(t)” value (SAV-BFl, 20 °C, 200 nM) was 62.5 ± 1.6 µM⁻¹ s⁻¹ and the kon (SAV-BFl, 20 °C, 200 nM, read-out: kon by corrected fluorescence anisotropy rF(t)) was 6.25e+07 M⁻¹ s⁻¹. The kon (SAV-BFl, 20 °C, 200 nM, read-out: kon by fluorescence change F(t)) was 6.23e+07 M⁻¹ s⁻¹, the kon (SAV-BFl, 20 °C, read-out: kon, Average) was 6.24e+07 M⁻¹ s⁻¹ and the “kon by corrected fluorescence anisotropy rF(t)” value (SAV-BFl, 25 °C, 200 nM) was 74.0 ± 2.0 µM⁻¹ s⁻¹. The kon (SAV-BFl, 25 °C, 200 nM, read-out: kon by corrected fluorescence anisotropy rF(t)) was 7.4e+07 M⁻¹ s⁻¹, the kon (SAV-BFl, 25 °C, 200 nM, read-out: kon by fluorescence change F(t)) was 7.54e+07 M⁻¹ s⁻¹ and the kon (SAV-BFl, 25 °C, read-out: kon, Average) was 7.47e+07 M⁻¹ s⁻¹. For the same compound, the kon (SAV, 4°C, calculated by an Arrhenius plot, read-out: kon) was 2.6e+07 M⁻¹ s⁻¹, the “ln(k)” value (SAV, 10 (283.15 K)) was 17.6 and the “k(average)” value [3] was 4.55E+07. For the same compound, the “k(average)” value (SAV, 10 (283.15 K), k (scaled)) was 45.5, the “ln(k)” value (SAV, 15 (288.15 K)) was 17.8 and the “k(average)” value [4] was 5.31E+07. For the same compound, the “k(average)” value (SAV, 15 (288.15 K), k (scaled)) was 53.1, the “ln(k)” value (SAV, 20 (293.15 K)) was 17.9 and the “k(average)” value (SAV, 20 (293.15 K), k (scaled)) was 58.6. The “ln(k)” value (SAV, 25 (298.15 K)) was 18.1, the “k(average)” value [5] was 7.47E+07 and the “k(average)” value (SAV, 25 (298.15 K), k (scaled)) was 74.7. For the same compound, the kon (SAV, 25°C and pH 8) was 7.5 ± 0.2 x 10^7 M^-1s^-1, the “Ea^Forward” value (SAV, pH 8) was 5.3 ± 0.3 kcal/mol and the “ΔG^ǂ” value (SAV, pH 8) was 3.3 ± 0.6 kcal/mol. The “ΔS^ǂ” value (SAV, pH 8) was 6.6 ± 0.5 cal/°K·mol, the “kcal/mol (from Arrhenius slope)” value (SAV) was -8101 and the “slope (Arrhenius linear fit)” value (SAV) was -4076.8. The kon (pH 8, SAV, 25°C and pH 8) was roughly 7.5e+07 M⁻¹ s⁻¹, the kon [6] was 4.54e+07 ± 1e+06 M⁻¹ s⁻¹ and the kon [7] was 5.31e+07 ± 2e+06 M⁻¹ s⁻¹. For the same compound, the kon [8] was 5.86e+07 ± 1.6e+06 M⁻¹ s⁻¹, the kon [9] was 7.47e+07 ± 2e+06 M⁻¹ s⁻¹ and the “halftime of association, F¯(t)” value (SAV 200 nM, pH 8, 20°C) was 77.3 ms. For the same compound, the “halftime of association, F¯(t)” value (SAV 400 nM, pH 8, 20°C) was 37.7 ms and the “halftime of association, F¯(t)” value (SAV 800 nM, pH 8, 20°C) was 20.6 ms.

For `NC(CCCCNC(=O)CCCC[C@@H]1SC[C@@H]2NC(=O)N[C@@H]21)C(=O)NCCCCCNC(=O)c1ccc(-c2c3cc(F)c(=O)cc-3oc3cc(O)c(F)cc23)c(C(=O)O)c1` (some centres unmarked) [BcO, Oregon green 488 Biocytin], the “kon binding to SAV, fold faster than binding to AV” value (25°C) was 3.2 X, the “rate at 4C (logarithmic value)” value (277.15 K, follows from the SAV line (m2, b2), protein not printed in the line) was 16.3 and the “halftime, F¯(t)” value (BcO 20 nM, SAV 200 nM, 10°C) was 200.6 ms. For the same compound, the “halftime, rF¯(t)” value (BcO 20 nM, SAV 200 nM, 10°C) was 201.4 ms, the “halftime, r¯(t)” value (BcO 20 nM, SAV 200 nM, 10°C) was 332.7 ms and the “b of the line y = m2x+b2” value (SAV 2, reacting with BcO) was 27.125. The “slope, m of the line y = m2x+b2” value (SAV 2, reacting with BcO, x = 1/Temp) was -2995.5, the “ln(k)” value (SAV, 10 (283.15 K)) was 16.7 and the “k(average)” value [3] was 1.73E+07. For the same compound, the “k(average)” value (SAV, 10 (283.15 K), k (scaled)) was 17.3, the “ln(k)” value (SAV, 15 (288.15 K)) was 16.8 and the “k(average)” value [4] was 2.00E+07. For the same compound, the “k(average)” value (SAV, 15 (288.15 K), k (scaled)) was 20, the “ln(k)” value (SAV, 20 (293.15 K)) was 17.0 and the “k(average)” value (SAV, 20 (293.15 K), k (full value)) was 2.40E+07. The “k(average)” value (SAV, 20 (293.15 K), k (scaled)) was 24, the “ln(k)” value (SAV, 25 (298.15 K)) was 17.2 and the “k(average)” value [5] was 3.03E+07. For the same compound, the “k(average)” value (SAV, 25 (298.15 K), k (scaled)) was 30.3, the “Ea^Forward” value (SAV, pH 8) was 6.2 ± 0.4 kcal/mol and the “ΔG^ǂ” value (SAV, pH 8) was 3.9 ± 0.4 kcal/mol. For the same compound, the “ΔS^ǂ” value (SAV, pH 8) was 7.8 ± 0.4 cal/°K·mol, the “kcal/mol (from Arrhenius slope)” value (SAV) was -9583 and the “slope (Arrhenius linear fit)” value (SAV) was -4823.1. For the same compound, the kon [6] was 1.73e+07 ± 600000 M⁻¹ s⁻¹, the kon [7] was 2e+07 ± 1.2e+06 M⁻¹ s⁻¹ and the kon [8] was 2.4e+07 ± 1.6e+06 M⁻¹ s⁻¹. For the same compound, the kon [9] was 3.03e+07 ± 2e+06 M⁻¹ s⁻¹, the “half-time of association, rF¯(t)” value (SAV 200 nM, pH 8, 10°C) was 202 ms and the “half-time of association, rF¯(t)” value (SAV 200 nM, pH 8, 15°C) was 111 ms. For the same compound, the “half-time of association, rF¯(t)” value (SAV 200 nM, pH 8, 20°C) was 79 ms, the kon (read-out: kon, mono-exponential fit of F¯(t), BcO 20 nM, SAV 200 nM, 10°C) was 1.73e+07 M⁻¹ s⁻¹ and the kon (read-out: kon, mono-exponential fit of rF¯(t), BcO 20 nM, SAV 200 nM, 10°C) was 1.72e+07 M⁻¹ s⁻¹. It also gave a kon (read-out: kon, mono-exponential fit of uncorrected anisotropy r¯(t), BcO 20 nM, SAV 200 nM, 10°C, ill-fitted signal) of 1.04e+07 M⁻¹ s⁻¹.
